Experimental findings from patent publication US10597388B2, “Pyridazinone herbicides” (FMC CORPORATION, priority 2014, dated 2020) are described below.

Common to all, as to assay type: in vivo
Assay [1] has as its system galium (catchweed bedstraw, Galium aparine). The assay is described as follows: Test A greenhouse herbicide test, postemergence. An outline of the steps:
(§1)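 Plants grown in loam soil/sand blend pots were treated postemergence at 2 to 10 cm height, one- to two-leaf stage, with formulated test chemicals. After approximately 10 d in a greenhouse, injury was rated visually against untreated controls on a 0 to 100 scale (0 no effect, 100 complete control).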

The subject of assay [2] is blackgrass (Alopecurus myosuroides). The assay is described as follows: Test A greenhouse herbicide test, postemergence. An outline of the steps:
as §1

The test system of assay [3] is chickweed (common chickweed, Stellaria media). The assay is described as follows: Test C greenhouse herbicide test, postemergence. The method in brief: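 Test chemicals were applied postemergence to greenhouse plants at the 1- to 4-leaf stage (2–18 cm tall) growing in peat/vermiculite medium. After 13–15 d, injury was rated visually against untreated controls on a 0–100 scale (0 = no effect, 100 = complete control).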

Assay [4] has as its system barnyardgrass (Echinochloa crus-galli). The assay is described as follows: Test B flooded paddy test. Conditions: 250 g ai/ha, Flood; visual rating on scale of 0 to 100 where 0 is no effect and 100 is complete control; 13 to 15 d after treatment. An outline of the steps:
(§2)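 Plants at the 2-leaf stage were flooded to 3 cm above soil, and test compounds were applied directly into the paddy water, which was held at that depth throughout. After 13 to 15 d in a greenhouse, injury was rated visually against untreated controls on a 0–100 scale (0 no effect, 100 complete control).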

For assay [5], the system named is ducksalad (Heteranthera limosa). Nature of the assay: Test B flooded paddy test. Conditions: 250 g ai/ha, Flood; visual rating on scale of 0 to 100 where 0 is no effect and 100 is complete control; 13 to 15 d after treatment. The method in brief:
as §2

The test system of assay [6] is rice (Oryza sativa). The assay is described as follows: Test B flooded paddy test. Conditions: 250 g ai/ha, Flood; visual rating on scale of 0 to 100 where 0 is no effect and 100 is complete control; 13 to 15 d after treatment. An outline of the steps: as §2
Assay [7] concerns sedge, umbrella (small-flower umbrella sedge, Cyperus difformis). The assay is described as follows: Test B flooded paddy test. Conditions: 250 g ai/ha, Flood; visual rating on scale of 0 to 100 where 0 is no effect and 100 is complete control; 13 to 15 d after treatment. The method in brief: as §2
The subject of assay [8] is barnyardgrass (Echinochloa crus-galli). Nature of the assay: Test A greenhouse herbicide test, pre- and postemergence. The method in brief: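 Seeds sown in loam–sand blend got a preemergence directed soil spray of compound in non-phytotoxic solvent with surfactant. Postemergence treatment was given at 2–10 cm, one- to two-leaf stage. After ~10 d in greenhouse, injury was rated visually vs untreated controls, 0 (no effect) to 100 (complete control).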

Setting [9] is: 125 g ai/ha, 0 to 100 scale where 0 is no effect and 100 is complete control.
Setting [10] is: 500 g ai/ha, visual rating after approx. 10 d, 0 to 100 scale (0 no effect, 100 complete control).
[11] abbreviates: Postemergence, 31 g ai/ha, scale 0 to 100 (0 no effect, 100 complete control).
Where [12] appears, read: Postemergence, 125 g ai/ha, scale 0 to 100, 0 is no effect, 100 is complete control.
The mark [13] stands for this setting: Postemergence, 250 g ai/ha, scale 0 to 100, 0 no effect, 100 complete control, 13 to 15 d.
Where [14] appears, read: postemergence, 62 g ai/ha, scale 0 to 100, 0 no effect, 100 complete control.
Setting [15] is: Postemergence, 125 g ai/ha, 0 to 100 scale where 0 is no effect and 100 is complete control.
Setting [16] is: Postemergence, 500 g ai/ha, visual rating after approx. 10 d, 0 to 100 scale (0 no effect, 100 complete control).
[17] abbreviates: Preemergence, 125 g ai/ha, 0 to 100 scale where 0 is no effect and 100 is complete control.
[18] abbreviates: Preemergence, 500 g ai/ha, 0 to 100 scale where 0 is no effect and 100 is complete control.
The mark [19] stands for this setting: Postemergence, 62 g ai/ha, 0 to 100 scale (0 no effect, 100 complete control).
[20] abbreviates: postemergence, 125 g ai/ha, scale 0 to 100, 0 no effect, 100 complete control.
Where [21] appears, read: 125 g ai/ha, 0 to 100 scale, 0 no effect, 100 complete control.
The mark [22] stands for this setting: Postemergence, 125 g ai/ha, 0 to 100 scale, 0 no effect, 100 complete control.
Setting [23] is: Preemergence, 125 g ai/ha, visual injury rating, 0 to 100 scale (0 no effect, 100 complete control), approx. 10 d.

Turning to `Cc1nn(C)c(=O)c(-c2ccc(F)c3ccccc23)c1OC(=O)CC(F)(F)F` [Compound 123], the “Plant response rating, Galium” value in assay [1] (setting [9]) is 80; in assay [1] (setting [10]), 90. Further, the “Plant response rating, Blackgrass” value in assay [2] (setting [9]) is on record as 30; in assay [2] (setting [10]), 50. Moreover, the “Plant response rating, Chickweed” value in assay [3] (setting [11]) is recorded as 90; in assay [3] (setting [12]), 90; in assay [3] (setting [13]) it was 98. Further, the “Chickweed plant response rating” value in assay [3] (setting [14]) was found to be 90. Moreover, the “Plant response rating, Barnyardgrass” value in assay [4] is recorded as 20; in assay [8] (setting [15]), 40; in assay [8] (setting [16]) it was 70; in assay [8] (setting [18]), 80. Also, the “Plant response rating, Ducksalad” value in assay [5] turned out to be 30. Moreover, the “Plant response rating, Rice” value in assay [6] is reported as 15. In addition, the “Plant response rating, Sedge, Umbrella” value in assay [7] worked out at 70. Moreover, the “Barnyardgrass plant response rating” value in assay [8] (setting [17]) is given as 0.
Take `Cc1ccc2ccccc2c1-c1c(O)c(Cl)nn(C)c1=O` [Compound 125]: the “Plant response rating, Galium” value in assay [1] (setting [9]) and in assay [1] (setting [10]) was 90 in each case. Also, the “Plant response rating, Blackgrass” value in assay [2] (setting [9]) is reported as 70; in assay [2] (setting [10]) it was 80. Moreover, the “Plant response rating, Chickweed” value in assay [3] (setting [11]), in assay [3] (setting [12]) and in assay [3] (setting [13]) was 95 each time. For the same compound, in assay [3] (setting [14]), the “Chickweed plant response rating” value is on record as 95. Also, the “Plant response rating, Barnyardgrass” value in assay [4] is given as 0; in assay [8] (setting [15]), 90; in assay [8] (setting [16]), 90; in assay [8] (setting [18]), 90. Further, in assay [5], the “Plant response rating, Ducksalad” value came to 80. Also, in assay [6], the “Plant response rating, Rice” value was determined as 0. The “Plant response rating, Sedge, Umbrella” value in assay [7] was 75. Moreover, the “Barnyardgrass plant response rating” value in assay [8] (setting [17]) was 70.
With `Cc1nn(C)c(=O)c(-c2cccc3ccc(C#N)cc23)c1O` [Compound 127], the entries for the “Plant response rating, Galium” value in assay [1] (setting [9]) and in assay [1] (setting [10]) were 90 and 100, respectively. Moreover, the “Plant response rating, Blackgrass” value in assay [2] (setting [9]) stood at 20; in assay [2] (setting [10]), 50. Further, the “Plant response rating, Chickweed” value is recorded as 50 in assay [3] (setting [11]) and 95 in assay [3] (setting [13]). Moreover, the “Chickweed plant response rating” value in assay [3] (setting [19]) and in assay [3] (setting [20]) was 90 in each case. Besides, the “Plant response rating, Barnyardgrass” value in assay [4] turned out to be 0; in assay [8] (setting [15]) it was 10; in assay [8] (setting [16]), 50; in assay [8] (setting [18]) it was 40. Moreover, the “Plant response rating, Ducksalad” value in assay [5] came to 0. Further, the “Plant response rating, Rice” value in assay [6] was 0. Also, in assay [7], the “Plant response rating, Sedge, Umbrella” value turned out to be 0. For the same compound, in assay [8] (setting [17]), the “Barnyardgrass plant response rating” value turned out to be 10.
For the compound `COC(=O)Oc1cnn(C)c(=O)c1-c1c(C)ccc2ccccc12` [Compound 143], the results for the “Plant response rating, Galium” value in assay [1] (setting [9]) and in assay [1] (setting [10]) were 90 and 100, respectively. Besides, the figures for the “Plant response rating, Blackgrass” value in assay [2] (setting [9]) and in assay [2] (setting [10]) were 40 and 60, respectively. In addition, the “Plant response rating, Chickweed” value in assay [3] (Postemergence, 16 g ai/ha, scale 0 to 100 (0 no effect, 100 complete control)) came to 30; in assay [3] (setting [11]), 45. Also, the figures for the “Chickweed plant response rating” value in assay [3] (setting [19]) and in assay [3] (setting [20]) were 70 and 80, respectively. The “Plant response rating, Barnyardgrass” value came out at 0 in assay [4], 20 in assay [8] (setting [15]), 60 in assay [8] (setting [16]) and 80 in assay [8] (setting [18]). The “Plant response rating, Ducksalad” value in assay [5] is 0. In assay [6], the “Plant response rating, Rice” value came to 0. In assay [7], the “Plant response rating, Sedge, Umbrella” value is listed as 0. For the same compound, the “Barnyardgrass plant response rating” value in assay [8] (setting [17]) was found to be 20.
Regarding `CC(=O)Oc1c(C)nn(C)c(=O)c1-c1c(C)cc(C)c2ccccc12` [Compound 153], the “Plant response rating, Galium” value in assay [1] (setting [21]) and in assay [1] (setting [10]) was 100 in each case. The “Plant response rating, Blackgrass” value in assay [2] (setting [21]) and in assay [2] (setting [10]) was 90 each time. In addition, the results for the “Plant response rating, Chickweed” value in assay [3] (setting [11]) and in assay [3] (setting [13]) were 90 and 98, respectively. Moreover, the “Chickweed plant response rating” value turned out to be 95 in assay [3] (setting [19]) and 98 in assay [3] (setting [20]). For the same compound, the “Plant response rating, Barnyardgrass” value was 0 in assay [4]; 90 in assay [8] (setting [22]); 90 in assay [8] (setting [16]); 100 in assay [8] (setting [23]); 100 in assay [8] (setting [18]). Also, the “Plant response rating, Ducksalad” value in assay [5] worked out at 0. The “Plant response rating, Rice” value in assay [6] was 0. Besides, the “Plant response rating, Sedge, Umbrella” value in assay [7] turned out to be 0.
With `Cc1cc(C)c2ccccc2c1-c1c(OS(C)(=O)=O)c(C)nn(C)c1=O` [Compound 154], the “Plant response rating, Galium” value in assay [1] (setting [21]) and in assay [1] (setting [10]) was 100 each time. Moreover, the figures for the “Plant response rating, Blackgrass” value in assay [2] (setting [21]) and in assay [2] (setting [10]) were 70 and 90, respectively. In addition, the “Plant response rating, Chickweed” value in assay [3] (setting [11]) is 90; in assay [3] (setting [13]), 95. For the same compound, the “Chickweed plant response rating” value in assay [3] (setting [19]) and in assay [3] (setting [20]) was 90 in each case. Besides, the “Plant response rating, Barnyardgrass” value in assay [4] turned out to be 50; in assay [8] (setting [22]), 90; in assay [8] (setting [16]), 90; in assay [8] (setting [23]), 70; in assay [8] (setting [18]) it was 100. Besides, the “Plant response rating, Ducksalad” value in assay [5] is listed as 60. Besides, in assay [6], the “Plant response rating, Rice” value stood at 50. The “Plant response rating, Sedge, Umbrella” value in assay [7] was 80.
With `COC(=O)Oc1c(C)nn(C)c(=O)c1-c1c([N+](=O)[O-])ccc2ccccc12` [Compound 162], the “Plant response rating, Galium” value in assay [1] (setting [21]) stood at 90; in assay [1] (setting [10]) it was 100. The “Plant response rating, Blackgrass” value in assay [2] (setting [21]) was 20; in assay [2] (setting [10]), 40. For the same compound, the “Plant response rating, Chickweed” value worked out at 90 in assay [3] (setting [11]) and 95 in assay [3] (setting [13]). For the same compound, the “Chickweed plant response rating” value came out at 90 in assay [3] (setting [19]) and 95 in assay [3] (setting [20]). Also, the “Plant response rating, Barnyardgrass” value stood at 0 in assay [4]; 20 in assay [8] (setting [22]); 50 in assay [8] (setting [16]); 10 in assay [8] (setting [23]); 20 in assay [8] (setting [18]). Moreover, in assay [5], the “Plant response rating, Ducksalad” value turned out to be 0. In addition, the “Plant response rating, Rice” value in assay [6] amounted to 0. Moreover, the “Plant response rating, Sedge, Umbrella” value in assay [7] is on record as 0.
As to `CC(=O)Oc1c(C)nn(C)c(=O)c1-c1c([N+](=O)[O-])ccc2ccccc12` [Compound 164], the “Plant response rating, Galium” value in assay [1] (setting [21]) is on record as 80; in assay [1] (setting [10]), 100. Also, the results for the “Plant response rating, Blackgrass” value in assay [2] (setting [21]) and in assay [2] (setting [10]) were 20 and 40, respectively. The “Plant response rating, Chickweed” value in assay [3] (setting [11]) is listed as 80; in assay [3] (Postemergence, 250 g ai/ha, scale 0 to 100, 0 is no effect, 100 is complete control), 98. Besides, the “Chickweed plant response rating” value in assay [3] (setting [19]) is given as 90; in assay [3] (setting [20]) it was 95. In addition, the “Plant response rating, Barnyardgrass” value in assay [4] is given as 0; in assay [8] (setting [22]), 20; in assay [8] (setting [16]) it was 20; in assay [8] (setting [23]), 10; in assay [8] (setting [18]), 20. Moreover, the “Plant response rating, Ducksalad” value in assay [5] is on record as 0. Besides, the “Plant response rating, Rice” value in assay [6] turned out to be 0. Moreover, the “Plant response rating, Sedge, Umbrella” value in assay [7] was determined as 0.
